{"source": "patent US20070043006A1", "about": "“Formulations of non-steroidal anti-inflammatory agents to treat pathologic ocular angiogenesis” (priority 2003, published 2007)", "tested_on": "retinal neovascularization", "experiment": "rat pup model of retinopathy of prematurity (oxygen-induced retinopathy)", "assay_type": "in vivo", "details": "for inhibition of retinal neovascularization: newborn rat pups exposed to varying oxygen", "experimental": "Anecortave acetate was tested for its angiostatic efficacy in a rat pup model of retinopathy of prematurity (Penn, at al., Investigative Ophthalmology & Visual Science, “The Effect of an Angiostatic Steroid on Neovascularization in a Rat Model of Retinopathy of Prematurity,” Vol. 42(1):283-290, January 2001). Newborn rat pups were placed in an atmosphere of varying oxygen content. The rats received a single intravitreal injection of vehicle or anecortave acetate (500 μg) upon return to room air (day 14) or 2 days later (day 16). There was significant retinal neovascularization in the rats that received vehicle injections.", "data": [{"smiles": "CC(=O)OCC(=O)[C@@]1(O)CC[C@H]2[C@@H]3CCC4=CC(=O)CC[C@]4(C)C3=CC[C@@]21C", "note": "[Anecortave acetate, 4,9(11)-pregnadien-17α,21-diol-3,20dione-21-acetate]", "values": [{"measurement": "preretinal neovascularization (neovascular score)", "setting": "local administration, rat model of oxygen-induced retinopathy, FIG. 1", "value": "inhibits preretinal neovascularization"}, {"measurement": "inhibition of retinal neovascularization", "setting": "single intravitreal injection 500 μg 2 days after return to room air (day 16)", "value": 50, "unit": "%"}, {"measurement": "inhibition of retinal neovascularization", "setting": "single intravitreal injection 500 μg upon return to room air (day 14)", "value": 66, "unit": "%"}]}]}
